Laboratory results reported in EPA's ToxValDB 9.5 (doi:10.2903/j.efsa.2014.3353).

Experiments:
Apis mellifera = settings: acute, duration: 48 hours, mortality
Bibionidae = settings: chronic/long-term; duration: 28 days; development
Colinus virginianus = settings: for LD50: acute, oral, mortality
Cyprinodon variegatus = settings: acute; duration: 96 hours; mortality
Daphnia magna = settings: chronic/long-term; duration: 21 days; mobility
Oryctolagus sp. = settings: reproduction developmental; body weight
Pimephales promelas = settings: chronic/long-term; duration: 28 days; growth
Tagia sp. = settings: acute; duration: 14 days; mortality

`COc1cc(OC)nc(NC(=O)NS(=O)(=O)Nc2ccccc2C(=O)N(C)C)n1` [Orthosulfamuron] was tested, and the LD50 (Apis mellifera; dermal) was greater than 100 µg/piece, the LC50 (Apis mellifera; oral, unspecified) was greater than 109 µg/piece and the NOEC (Bibionidae) was 66.9 mg/L. For the same compound, the LD50 (Colinus virginianus; duration: 5 days, diet) was greater than 936 mg/kg-day, the LD50 (Colinus virginianus) was greater than 2000 mg/kg-day and the NOEC (Colinus virginianus; reproduction developmental, duration: 21 weeks) was 112 mg/kg-day. It also gave an LC50 (Cyprinodon variegatus) greater than 123 µg/mL, an NOEC (Daphnia magna) of 10 mg/L and an NOAEL (Oryctolagus sp.) of 75 mg/kg-day. It also gave an NOEC (Pimephales promelas) of 6.1 mg/L, an LD50 (Rattus norvegicus; acute, oral, mortality) greater than 5000 mg/kg-day and an NOAEL (Rattus norvegicus; chronic, duration: 2 years, other) of 5 mg/kg-day. The NOAEL (Rattus norvegicus; reproduction developmental, mobility) was 70.8 mg/kg-day, the NOAEL (Rattus norvegicus; reproduction developmental, other) was 5 mg/kg-day and the LOAEL (Rattus norvegicus; subchronic, duration: 90 days, oral, immunology) was 19 mg/kg-day. The LC50 (Tagia sp.) was greater than 1000 mg/kg.
